Earlier results as cited in article PMC12648288, “Drastic Impact of Donor Substituents on Xanthenes in the PDT of Glioblastoma” (JACS Au, 2025).
Where two headings read alike, the source gives them in different places. No end group written: not given here. TPC = chlorin-type photosensitizer; Ahx = NCCCCCC(=O)O

Tests used:
[1] = cited from earlier work
[2] = tested on: U87MG; settings: cited from earlier work; for IC50: 32 (SI list)
[3] = tested on: T98G; settings: ref 28 (SI list); cited from earlier work
[4] = tested on: SNB-19; design: method as in ref 11 (SI list); settings: ref 11 (SI list); cited from earlier work
[5] = tested on: F98; settings: 31 (SI list); cited from earlier work
[6] = in MeOH, as fraction; cited from earlier work
[7] = tested on: HUVEC; design: method as in ref 16 (SI list); settings: ref 16 (SI list); cited from earlier work
[8] = tested on: DBTRG-05; design: method as in ref 29 (SI list); settings: ref 29 (SI list); cited from earlier work
[9] = tested on: A172; design: method as in ref 29 (SI list); settings: ref 29 (SI list); cited from earlier work
[10] = measured in PBS (pH 7.4), 22-32 (SI list)

CN(C)c1ccc2cc3ccc(N(C)C)cc3nc2c1 [Acridine Orange]
Abs (nm) [1, 10]: 487 nm

COc1c(CC(C)O)c2c3c(CC(C)O)c(OC)c(=O)c4c(O)cc5c(c6c(cc(O)c(c1=O)c62)OCO5)c43 (centres unmarked) [Cercosporin]
LD50 ([2]; ref 28 (SI list)): 4 µM | Abs (nm) [1, 10]: 473 nm | LD50 [3]: 4 µM

COc1cc(/C=C/C(=O)CC(=O)/C=C/c2ccc(O)c(OC)c2)ccc1O [Curcumin (CUR), Curcumin]
IC50 [4]: 5.74 µM

CCCCCCOC(C)c1c(C)c2cc3nc(c4c5[nH]c(cc6nc(cc1[nH]2)C(C)=C6CC)c(C)c5C(=O)C4)C(CCC(=O)Nc1ccc(SC2=C(C=CC4=[N+](CCCCS(=O)(=O)[O-])c5ccc6ccccc6c5C4(C)C)CCCC2=CC=C2N(CCCCS(=O)(=O)[O-])c4ccc5ccccc5c4C2(C)C)cc1)C3C.[Na+] (centres unmarked) [HPPH-CD]
IC50 [2]: 1.63 µM | Abs (nm) [1, 10]: 848 nm

C=Cc1c(C)c2cc3nc(cc4nc(cc5[nH]c(cc1[nH]2)c(C)c5C(C)OC(C)c1c(C)c2cc5[nH]c(cc6nc(cc7nc(cc1[nH]2)C(C)=C7CCC(=O)[O-])C(CCC(=O)[O-])=C6C)c(C)c5C=C)C(C)=C4CCC(=O)[O-])C(CCC(=O)[O-])=C3C.[Na+].[Na+].[Na+].[Na+] (centres unmarked) [Sinoporphyrin sodium (DVDMS), Sinoporphyrin sodium]
Abs (nm) [1, 10]: 631 nm

Cc1ccnc(-c2cc(C)ccn2)c1.Cc1ccnc(-c2cc(C)ccn2)c1.[Cl-].[Cl-].[Ru+2].c1csc(-c2ccc(-c3ccc(-c4nc5c6cccnc6c6ncccc6c5[nH]4)s3)s2)c1 [TLD1433]
IC50 [2]: 0.051 µM | Abs (nm) [1, 10]: 416 nm | IC50 [5]: 2.81 µM

[Zn+2].c1ccc2c(c1)-c1nc-2nc2[n-]c(nc3nc([n-]c4nc(n1)-c1ccccc1-4)-c1ccccc1-3)c1ccccc21 [ZnPc]
Abs (nm) [1, 10]: 645 nm

CN(C)c1ccc2nc3ccc(=[N+](C)C)cc-3sc2c1 [methylene blue]
ΦF of reference standard [6]: 0.23

Benzoporphyrin derivative [Benzoporphyrin derivative (BPD)]
IC50 [2]: 13.1 µM | Abs (nm) [1, 10]: 692 nm

TPC–Ahx–ATWLPPR: chlorin-type photosensitizer conjugated to neuropilin-1 targeting peptide (SI ref 16) ({TPC-Ahx}-ATWLPPR)
Abs (nm) ([1]; EtOH, 16 (SI list)): 420 nm | IC50 [7]: 171 µM

Tetrahydroporphyrin-Tetratosylat [THPTS]
IC30 [8]: 4 µM | IC30 ([2]; ref 29 (SI list)): 2 µM | IC30 [9]: 10 µM | Abs (nm) [1, 10]: 760 nm

[(Ph2phen)2Os(dpp)]2+
Abs (nm) [1, 10]: 650 nm | IC50 [5]: 86.1 µM
